Assay: Metabolic stability in pooled rat liver microsomes
Details: for CLint scaled at 0.5 µM: pH 7.4, Clint; for half-life at 0.5 µM: pH 7.4, T1/2
Protocol: Buffer solutions were prepared as follows: • a. Buffer A: 0.1 M monobasic potassium phosphate buffer containing 1.0 mM EDTA. • b. Buffer B: 0.1 M dibasic potassium phosphate buffer containing 1.0 mM EDTA. • c. Buffer C: 0.1 M potassium phosphate buffer containing 1.0 mM EDTA was adjusted to pH 7.4 by titrating 700 mL of Buffer B with Buffer A while monitoring with a pH meter. • 2. An NADPH stock solution (6 mM) was prepared by dissolving NADPH into Buffer C. • 3. Spiking solutions were prepared for the reference compound (ketanserin) and the test compounds as follows: • a. A 500 μM spiking solution of the reference compound (ketanserin) was generated by adding 10 μL of a 10 mM stock solution of ketanserin in DMSO into 190 μL acetonitrile. A 1.5 μM spiking solution in microsomes (0.75 mg/mL) was generated by adding 1.5 μL of the 500 μM spiking solution and 18.75 μL of 20 mg/mL rat liver microsomes into 479.75 μL of Buffer C while cooling with ice. • b. […] A 0.75 μM spiking solution in microsomes (0.75 mg/mL) was generated by adding 1.5 μL of the 250 μM spiking solution and 18.75 μL of 20 mg/mL rat liver microsomes into 479.75 μL of Buffer C while cooling with ice. • 4. 30 μL of 1.5 μM spiking solution containing 0.75 mg/mL microsomes solution was dispensed into assay plates designated for different time points (0 min, 5 min, 15 min, 30 min, and 45 min; or 0 min, 15 min, 30 min, 45 min, and 60 min as shown in Tables 1-5 below) while cooling with ice. • 5. For the 0 min time point assay plate, 135 μL of ACN containing IS followed immediately by 15 μL of the 6 mM NADPH stock solution were added to the wells of the 0 min assay plate. • 6. All assay plates other than the 0 min assay plate were pre-incubated at 37° C. for 5 min, and then 15 μL of the 6 mM NADPH stock solution was added to the wells of the assay plates to start the reaction and timing. At the appropriate time (5 min, 15 min, 30 min, 45 min, or 60 min), 135 μL of ACN containing IS was added to the wells of the corresponding assay plates, respectively, to stop the reaction. • 7. After quenching, the plates were shaken in a vibrator (IKA, MTS 2/4) for 10 min (600 rpm/min) and then centrifuged at 5594 g for 15 min (Thermo Multifuge×3R). • 8. After centrifugation, 50 μL of the supernatant from each well was transferred into a 96-well sample plate containing 50 μL of ultrapure water (Millipore, ZMQS50F01) for LC/MS analysis.

[1] = rat liver microsomes, Table 2 (Example 17)
[2] = rat liver microsomes, Table 1 (Example 16)
[3] = rat liver microsomes, Table 3 (Example 18)
[4] = rat liver microsomes, Table 5 (Example 20)
[5] = rat, microsomes, 0 h, 0.5 µM, pH 7.4
[6] = rat, microsomes, 0.25 h, 0.5 µM, pH 7.4
[7] = rat, microsomes, 0.5 h, 0.5 µM, pH 7.4
[8] = rat, microsomes, 0.75 h, 0.5 µM, pH 7.4
[9] = rat, microsomes, 1 h, 0.5 µM, pH 7.4

Compound: NC(=O)c1cccc2cn(-c3ccc([C@@H]4CCCNC4)cc3)nc12 (racemic) [racemic niraparib]
- Percent Remaining (%) 0 min (rat liver microsomes, 0 min, Table 1 (Example 16)): 100.00%
- Percent Remaining (%) 0 min (rat liver microsomes, 0 min, Table 2 (Example 17)): 100%
- Percent Remaining (%) 0 min (rat liver microsomes, 0 min, Table 3 (Example 18)): 100.00%
- Percent Remaining (%) 0 min (rat liver microsomes, 0 min, Table 5 (Example 20)): 100.00%
- Percent Remaining (%) 5 min [1]: 116.67%
- Percent Remaining (%) 15 min (rat liver microsomes, 15 min, Table 1 (Example 16)): 89.16%
- Percent Remaining (%) 15 min (rat liver microsomes, 15 min, Table 2 (Example 17)): 95.83%
- Percent Remaining (%) 15 min (rat liver microsomes, 15 min, Table 3 (Example 18)): 92.47%
- Percent Remaining (%) 15 min (rat liver microsomes, 15 min, Table 5 (Example 20)): 77.23%
- Percent Remaining (%) 30 min (rat liver microsomes, 30 min, Table 1 (Example 16)): 75.88%
- Percent Remaining (%) 30 min (rat liver microsomes, 30 min, Table 2 (Example 17)): 83.18%
- Percent Remaining (%) 30 min (rat liver microsomes, 30 min, Table 3 (Example 18)): 65.45%
- Percent Remaining (%) 30 min (rat liver microsomes, 30 min, Table 5 (Example 20)): 65.45%
- Percent Remaining (%) 45 min (rat liver microsomes, 45 min, Table 1 (Example 16)): 69.11%
- Percent Remaining (%) 45 min (rat liver microsomes, 45 min, Table 2 (Example 17)): 81.48%
- Percent Remaining (%) 45 min (rat liver microsomes, 45 min, Table 3 (Example 18)): 51.57%
- Percent Remaining (%) 45 min (rat liver microsomes, 45 min, Table 5 (Example 20)): 53.43%
- Percent Remaining (%) 60 min (rat liver microsomes, 60 min, Table 1 (Example 16)): 60.43%
- Percent Remaining (%) 60 min (rat liver microsomes, 60 min, Table 3 (Example 18)): 50.17%
- Percent Remaining (%) 60 min (rat liver microsomes, 60 min, Table 5 (Example 20)): 42.23%
- Clint [2]: 30.15 mL/min/kg
- T1/2 [2]: 1.373 h
- Clint [1]: 24.43 mL/min/kg
- T1/2 [1]: 1.6945 h
- Clint [3]: 46.91 mL/min/kg
- T1/2 [3]: 0.8825 h
- Clint [4]: 50.00 mL/min/kg
- T1/2 [4]: 0.828 h

Compound: [2H]c1c([2H])c(C2([2H])C([2H])([2H])NC([2H])([2H])C([2H])([2H])C2([2H])[2H])c([2H])c([2H])c1-n1cc2cccc(C(N)=O)c2n1 (stereo not shown) [Example 2, 2-(4-(piperidin-3-yl-2,2,3,4,4,5,5,6,6-d9)phenyl-2,3,5,6-d4)-2H-indazole-7-carboxamide]
- Percent Remaining (%) 0 min [5]: 100.00%
- Percent Remaining (%) 15 min [6]: 93.04%
- Percent Remaining (%) 30 min [7]: 80.95%
- Percent Remaining (%) 45 min [8]: 75.60%
- Percent Remaining (%) 60 min [9]: 69.05%
- CLint scaled at 0.5 µM (rat, microsomes): 22.7 mL/min/kg
- half-life at 0.5 µM (rat, microsomes): 1.83 h

Compound: [2H]C1NC([2H])C([2H])(c2ccc(-n3cc4cccc(C(N)=O)c4n3)cc2)C([2H])C1[2H] (stereo not shown) [Example 5, 2-(4-(piperidin-3-yl-2,3,4,5,6-d5)phenyl)-2H-indazole-7-carboxamide]
- Percent Remaining (%) 0 min [5]: 100.00%
- Percent Remaining (%) 15 min [6]: 108.00%
- Percent Remaining (%) 30 min [7]: 89.02%
- Percent Remaining (%) 45 min [8]: 81.33%
- Percent Remaining (%) 60 min [9]: 80.31%
- CLint scaled at 0.5 µM (rat, microsomes): 17.2 mL/min/kg
- half-life at 0.5 µM (rat, microsomes): 2.4 h

Compound: [2H]c1c([2H])c(-n2cc3cccc(C(N)=O)c3n2)c([2H])c([2H])c1C1C([2H])NC([2H])C([2H])C1[2H] (stereo not shown) [Example 6]
- Percent Remaining (%) 0 min [5]: 100%
- Percent Remaining (%) 5 min (rat, microsomes, 0.5 µM, pH 7.4): 112%
- Percent Remaining (%) 15 min [6]: 100%
- Percent Remaining (%) 30 min [7]: 88.27%
- Percent Remaining (%) 45 min [8]: 85.02%
- CLint scaled at 0.5 µM (rat, microsomes): 18.8 mL/min/kg
- half-life at 0.5 µM (rat, microsomes): 2.2 h
